Laboratory results as given in patent US10842884B2, “Endosomolytic agents for gene therapy” (UCB Biopharma SRL, priority 2016, dated 2020).
Counter-ions that a name gives are not always drawn.

Tests used:
[1] = system: Chinese Hamster Ovary (CHO) cells; assay: Transfection of CHO cells using lipopolyplexes, β-galactosidase reporter gene expression; assay type: cell-based
From the text: Transfection of Chinese Hamster Ovary (CHO) Cells Using Lipopolyplexes
Plasmid pEGlacZ containing the bacterial β-galactosidase gene under the control of the human cytomegalovirus immediate early promoter was constructed using standard molecular cloning techniques. The 7676 base pair (bp) plasmid was derived by cleavage of pGFP-N1 (Clontech) with HindIII and BclI to remove the reporter gene fragment. The β-galactosidase coding region from pSV-β-galactosidase (Promega) was then inserted via a HindIII to BamHI fragment. Plasmid DNA was then purified using an anion-exchange column (Qiagen Ltd). The average molecular weight per base pair was calculated to be 620.84 Da (310.5 Da for a monophosphorylated nucleotide). The amount of negative charge on the plasmid was then determined on the basis that a single negative charge is associated with each nucleotide.
[…] Lipid films were formed by rotary evaporation at 60° C. and further dried on a freeze drier overnight. Rehydration of the lipid film was performed by adding 4 mL of deionised water and […] 1M NaOH at 60° C. with vigorous agitation in the presence of […] diameter glass beads, taking care to maintain pH in the range 7.5 to 8.0, resulting in the formation of multi-lamellar vesicles (MLVs).
Stock solutions of R26 peptide as a DNA condensing agent at 144 μg/ml and plasmid DNA at 60 μg/ml were prepared in de-ionized water. Equal volumes of each were mixed by adding the plasmid DNA drop-wise to the R26 solution with vortexing. The charge ratio of the polyplex was 3.9:1 (peptide positive charged residues to DNA negative charged phosphates).
The polyplex preparation was diluted in 10 mM HEPES buffer pH 8 to 15 μg/ml DNA equivalent. […] Lipopolyplexes were formed by adding equal volumes of polyplex solution drop-wise to liposome suspension with vortexing.
CHO cells were seeded into 24-wellplates at 100 000 cells per well in Opti-MEM (Gibco BRL) media containing 10% dialysed foetal calf serum (FCS, Gibco BRL) and maintained 37° C. in 5% CO2 incubator for 24 h before the experiment. The adherent cells were washed once in Opti-MEM (Gibco BRL) prior to transfection. Washed medium was removed and replaced with 0.5 ml of Opti-MEM to which 167 μl of lipopolyplex was added ([…]). Individual lipopolyplex preparations were tested in triplicate wells. Cells were incubated for a further 4 h at 37° C. in 5% CO2 before removal of the medium and non-cell associated lipopolyplex and addition of 1 ml of fresh medium (Dulbecco's modified Eagle's medium (DMEM), plus glutamate, asparagine, adenosine, guanosine, cytidine, uridine, thymidine and 10% FCS.
Cells were cultured for a further 72 h before harvesting, the medium was aspirated and the cells washed twice with 1 ml phosphate buffered saline. Cells were lysed by the addition of 200 μl per well of lysis buffer (Promega) and the plate was agitated on an orbital mixer for 15 min. The lysates were transferred to individual Eppendorf tubes, taking care to remove attached cells by scraping with a pipette tip prior to removal. Cell debris was removed by centrifugation in a microfuge for 5 min followed by transfer of the supernatant into clean Eppendorf tubes.
Levels of β-galactosidase (β-gal) activity were determined using a colorimetric enzyme assay kit (Promega) as follows: 50 μl of cell extract was incubated with the kit substrate, O-nitrophenyl-β-D-galactopyranoside in buffer solution for 30 min at 37° C. The reaction was stopped by the addition of 150 μl of 1M sodium carbonate and the absorbance measured at 420 nm (Multiskan Ascent plate reader, Labsystems). Absorbance values were interpolated from a calibration curve to give enzyme activity in mU per ml. In turn these values were normalised in reference to lysate protein concentration as determined by a BCA assay kit (Pierce) and expressed as mU of β-gal per mg of protein.
An anionic liposome composition was evaluated comprising DOPC and CHEMS in the presence and absence of Compound 2. […]

Row | melting point [°C] | Structure (SMILES) | reporter gene expression ([1]; Example 22, FIG. 1, cholesterol/oleic acid totally substituted with Compound 2 at 40 mol %) | reporter gene expression levels ([1]; Example 22, FIG. 1, higher lipid to DNA ratios (above 2:1), exception: 5:1 lipid to DNA with 20 mol % Compound 2) | reporter gene expression ([1]; Example 22, FIG. 1, lipid to DNA ratio 2:1, Compound 2 content 1 to 40 mol %) | expression of β-galactosidase ([1]; Example 22, FIG. 1, lipopolyplexes with cholesterol, oleic acid and DOPC, 1 mol % Compound 2) | levels of β-galactosidase expression ([1]; Example 23, FIG. 2, DOPC/CHEMS lipopolyplexes, 20 mol % Compound 2, lipid to DNA ratios 0.6:1 to 5.5:1) | transfection enhancement via endosomolytic properties ([1]; overall conclusion from Examples 22 and 23)
1 | 27 to 27.5 | CCCCCCCCCCCCCCCCCCOC[C@@H](COP(=O)(OCCCCCCCCCCCc1cc(CC(C)(C)C(=O)OC)cc(CC(C)(C)C(=O)OC)c1)Oc1ccccc1Cl)OCCCCCCCCCCCCCCCCCC (stereo partly shown) |  |  |  |  |  | 
2 |  | CC(C)CCCC(C)C1CCC2C3CC=C4C[C@H](OP(=O)(O)OCCCCCCCCCCCc5cc(CC(C)(C)C(=O)O)cc(CC(C)(C)C(=O)O)c5)CC[C@]4(C)C3CC[C@]12C (stereo partly drawn) [Compound 2, 3,3′-(5-(11-(((((3R,10R,13R)-10,13-Dimethyl-17-(6-methylheptan-2-yl)-2,3,4,7,8,9,10,11,12,13,14,15,16,17-tetradecahydro-1H-cyclopenta[a]phenanthren-3-yl)oxy)(hydroxy)phosphoryl)oxy)undecyl)-1,3-phenylene)bis(2,2-dimethylpropanoic acid), ammonium salt] | highest | not significant | increased with increasing content of Compound 2 | little or no expression | high, significant levels | confirming the effectiveness of Compound 2 as a transfection enhancing agent
